Assay results reported in ChEMBL document CHEMBL1136693, “Aryl tetrahydropyridine inhibitors of farnesyltransferase: glycine, phenylalanine and histidine derivatives” (Bioorg Med Chem Lett, 2003).

target: Protein farnesyltransferase (Mus musculus, UniProt Q61239+Q8K2I1); experiment: Inhibition of Ras farnesylation in Human Ha-Ras-transformed BALB/c 3T3 cells; assay type: functional, cell-based

Row | SMILES | EC50 [nM]
1 | Cn1cncc1C[C@@H](NCc1ccc(C#N)cc1)C(=O)N1CCC(C#N)=C(c2cccc3ccccc23)C1 | 190
2 | CN(Cc1ccc(C#N)cc1)[C@H](Cc1cncn1C)C(=O)N1CCC(C#N)=C(c2cccc3ccccc23)C1 | > 100
3 | CCCCN(CCC1CCCCC1)Cc1ccc(C(=O)N[C@@H](CCSC)C(=O)O)c(-c2ccccc2C)c1 | 16

target: Protein farnesyltransferase (Homo sapiens, UniProt P49354+P49356); experiment: In vitro inhibitory activity against farnesyl transferase; assay type: protein-complex assay

Row | SMILES | IC50 [nM]
4 | CSCC[C@H](NC(=O)C1=C(c2ccccc2C)CN(C(=O)OC(CCC2CCCCC2)c2cncs2)CC1)C(=O)O (some centres not stated) | 0.71
5 | Cn1cncc1CN(CC(=O)N1CCC(C#N)=C(c2cccc3ccccc23)C1)Cc1ccccc1 | 280
6 | CSCC[C@H](NC(=O)C1=C(c2ccccc2C)CN(C(=O)N(Cc2ccccc2)Cc2cncs2)CC1)C(=O)O | 0.56

Continued, values first:

Row | IC50 [nM] | SMILES
7 | 560 | Cn1cncc1CN(CC(=O)N1CCC(C#N)=C(c2cccc3ccccc23)C1)Cc1ccc(C#N)cc1
8 | 130 | Cn1cncc1C[C@H](NCc1ccc(C#N)cc1)C(=O)N1CCC(C#N)=C(c2cccc3ccccc23)C1
9 | 240 | Cn1cncc1CN[C@H](Cc1ccc(C#N)cc1)C(=O)N1CCC(C#N)=C(c2cccc3ccccc23)C1
10 | 310 | Cn1cncc1CN[C@@H](Cc1ccc(C#N)cc1)C(=O)N1CCC(C#N)=C(c2cccc3ccccc23)C1

target: Geranylgeranyl transferase type I (Homo sapiens, UniProt P49354+P53609); experiment: In vitro inhibitory activity against geranylgeranyltransferase-1 (type I); assay type: protein-complex assay

Row | SMILES | IC50 [nM]
11 | Cn1cncc1C[C@@H](NCc1ccc(C#N)cc1)C(=O)N1CCC(C#N)=C(c2cccc3ccccc23)C1 | 3500

target: Protein farnesyl/geranylgeranyl transferase (Homo sapiens) (UniProt P49354+P49356+P53609); experiment: Selectivity for farnesyl over geranylgeranyl transferase; assay type: protein-complex assay

Row | SMILES | Selectivity
12 | CCCCN(CCC1CCCCC1)Cc1ccc(C(=O)N[C@@H](CCSC)C(=O)O)c(-c2ccccc2C)c1 | 75000
